# Results as given in the supplement of paper PMC7840683.
# ± gives the standard deviation of the averaged measurements.
# Tested on: HepaRG
# Experiment: LDH release cytotoxicity, % of total lysis control; higher = more cytotoxic
# Conditions: 48 h
# How it was run: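 Duplicate wells of single-lot HepaRG cells, grown on collagen I-coated 96-well plates, received eight-point half-log series of test chemicals with 100 µM as the top concentration. Exposure lasted 48 h in serum-free induction medium with 0.5% DMSO, while total lysis wells received 0.1% Triton X. Resorufin fluorescence (CytoTox-ONE, Tecan Safire) was used to quantify LDH leaked into 50 µL of spent medium. Values for percent cytotoxicity were normalized to on-plate vehicle and total lysis controls and averaged across the duplicates.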
Structure (SMILES),LDH release cytotoxicity (0.03162 µM) [%],LDH release cytotoxicity (0.1 µM) [%],LDH release cytotoxicity (0.3162278 µM) [%],LDH release cytotoxicity (1 µM) [%],LDH release cytotoxicity (3.16228 µM) [%],LDH release cytotoxicity (10 µM) [%],LDH release cytotoxicity (31.6228 µM) [%],LDH release cytotoxicity (100 µM) [%],LDH release cytotoxicity (0.031623 µM) [%],LDH release cytotoxicity (0.316228 µM) [%]
O=C(Oc1ccc(Br)cc1)N1CCN2CCC1CC2,-1.87 ± 0.45,-3.23 ± 2.2,-0.984 ± 0.16,-1.45 ± 0.27,-1.43 ± 0.56,-1.29 ± 0.41,-0.718 ± 0.41,0.972 ± 0.95,,
CC(=O)NC1(c2cccc(F)c2)CCN(CCC2(c3ccc(Cl)c(Cl)c3)CN(c3ccccc3)C(=O)CO2)CC1 (stereo not drawn),-0.672 ± 1.2,-0.672 ± 0.82,-0.643 ± 0.17,-0.552 ± 0.44,-0.767 ± 0.35,-0.38 ± 0.15,0.499 ± 0.37,3.41 ± 1.2,,
CC(C)(C)c1csc(-c2cc3cc(OCc4ccccc4CC(=O)O)ccc3o2)n1,,-2.14 ± 0.54,,-2.18 ± 0.68,-2.37 ± 0.089,-3.649 ± 0.015,-2.7 ± 0.72,64 ± 7,1.06 ± 0.28,-2.66 ± 0.65
CC(C)(O)c1ccc(CNC(=O)c2cccnc2Oc2ccc(F)cc2)cc1,-1.22 ± 0.93,-1.42 ± 0.31,-0.81 ± 0.042,-1.975 ± 0.0046,-0.936 ± 0.39,-0.88 ± 0.74,-1.34 ± 0.14,-1.94 ± 0.87,,
CC(C)c1nnc2ccc(-c3ocnc3-c3cc(F)ccc3F)cn12,-1.28 ± 0.22,-1.01 ± 0.88,-1.08 ± 0.44,-1.31 ± 0.37,-2.01 ± 0.34,-1.36 ± 0.45,-2.04 ± 0.03,5.98 ± 0.59,,
CC(C)CCCCCCCOC(=O)c1ccccc1C(=O)OCCCCCCCC(C)C,-1.32 ± 0.57,-1.15 ± 0.18,-1.36 ± 0.46,-1.26 ± 0.61,-0.979 ± 0.44,-0.985 ± 0.6,-0.631 ± 0.57,0.487 ± 0.66,,
CC(Oc1ccc(CNC(=O)c2cccnc2Oc2ccc3c(c2)OCO3)c(F)c1)C(=O)O (stereo not drawn),0.432 ± 0.73,-0.868 ± 0.12,-1.04 ± 0.64,-1.35 ± 0.25,-1.24 ± 0.19,-0.8947 ± 0.0016,-0.798 ± 0.6,-0.624 ± 0.43,,
CC1(C)NC(=O)N(c2ccc([N+](=O)[O-])c(C(F)(F)F)c2)C1=O,-1.893 ± 0.013,-2.02 ± 0.6,-1.85 ± 0.036,-2.09 ± 0.12,-2 ± 0.71,-1.72 ± 0.061,-1.66 ± 0.7,-0.93 ± 0.35,,
Cc1oc2c(NC(=O)c3c(Cl)cccc3Cl)cccc2c1C(C)(C)O,-1.37 ± 0.53,-0.99 ± 1.4,-1.56 ± 1.6,-1.94 ± 1.6,-2.03 ± 0.99,-0.5 ± 0.33,13.1 ± 1.4,33.7 ± 0.42,,
Cc1oc(-c2ccccc2)nc1CCOc1cccc2c1ccn2CCC(=O)O,-0.496 ± 0.49,-1.56 ± 0.14,-1.37 ± 1.4,-1.71 ± 0.068,-1.03 ± 0.61,-0.899 ± 0.13,-0.577 ± 0.44,45.3 ± 5.2,,
Cc1[nH]nc2c1N=C(c1ccccc1Cl)c1cc([N+](=O)[O-])ccc1N2,-0.496 ± 0.19,-1.12 ± 0.7,-0.522 ± 0.35,2.66 ± 0.69,5.42 ± 0.45,4.54 ± 0.36,7.8 ± 1.1,40.5 ± 3.8,,
Cc1cc(CCN2CCN(c3nsc4ccccc34)CC2)cc2c1NC(=O)CC2(C)C,-0.898 ± 0.3,-1.13 ± 1.4,-0.946 ± 0.34,-0.828 ± 0.57,-0.925 ± 0.38,-1.14 ± 0.57,-0.566 ± 0.6,-0.469 ± 0.49,,
Cc1cc(NC(=O)C(=O)O)cc(C)c1Oc1ccc(O)c2c1CCC2,0.0573 ± 0.64,-0.831 ± 0.11,-0.658 ± 0.17,-1.32 ± 0.24,-1.06 ± 0.025,-0.633 ± 0.77,1.17 ± 2.3,0.214 ± 0.025,,
CCc1cc(SCc2sc(-c3ccc(C(F)(F)F)cc3)nc2CN2CCN(c3ccc(OC)cc3)CC2)ccc1OCC(=O)O,-1.41 ± 0.0016,-1.04 ± 0.17,-0.879 ± 1.1,-1.49 ± 0.045,-2.29 ± 0.43,21 ± 2.3,70.2 ± 1.2,84 ± 2.7,,
CCC1CC(N(Cc2cc(C(F)(F)F)cc(C(F)(F)F)c2)C(C)=O)c2cc(C(F)(F)F)ccc2N1C(=O)OC(C)C (stereo not drawn),-0.374 ± 0.25,0.141 ± 0.44,-0.658 ± 0.2,-0.248 ± 0.3,-1.3 ± 0.09,0.748 ± 0.45,3.11 ± 0.63,7.54 ± 0.85,,
CCCN(C1CCN(C(=O)C2CCNCC2)CC1)C1CCc2ccc(OC)cc2C1 (stereo not drawn),-0.976 ± 1.3,-1.04 ± 1.4,-2.19 ± 0.35,-1.39 ± 0.37,-1.79 ± 0.61,-1.52 ± 0.12,0.507 ± 0.4,45.7 ± 1.9,,
CCCOc1ccc(S(=O)(=O)N2CCN(CC)CC2)cc1-c1nc2c(CC)n(Cc3ccccn3)nc2c(=O)[nH]1,-0.95 ± 0.39,-1.66 ± 0.39,-1.8 ± 0.68,-1.82 ± 0.63,-1.41 ± 0.12,-1.21 ± 0.066,-0.893 ± 0.14,5.44 ± 2.7,,
C=C(C)CN(CC)c1c([N+](=O)[O-])cc(C(F)(F)F)cc1[N+](=O)[O-],0.288 ± 0.69,-0.786 ± 0.58,-0.775 ± 0.099,-1.3 ± 0.21,-0.72 ± 0.57,-0.92 ± 0.68,-0.439 ± 0.064,0.333 ± 0.038,,
CCN(CC)CCNc1ccc(CNC=O)c2sc3ccc(OC)cc3c(=O)c12,-0.844 ± 1.3,-1.66 ± 0.14,-0.986 ± 0.35,-1.41 ± 0.78,1.37 ± 0.86,2.31 ± 0.54,5.144 ± 0.031,81.1 ± 6.4,,
CCN1CCC2(CC1)COc1cc3c(cc12)N(C(=O)c1ccc(-c2ccc(-c4nnc(C)o4)cc2C)cc1)CC3,-2.84 ± 1.3,-2.94 ± 0.81,-1.93 ± 1.5,-3.08 ± 0.76,-3.21 ± 1.3,-2.54 ± 0.92,-2.8 ± 0.8,-0.687 ± 1.4,,
CCOc1cccc(C2(N3CCN(c4ccccc4)CC3)CCC(C)CC2)c1 (stereo not drawn),-1.75 ± 0.02,-2.4 ± 0.55,-2.68 ± 0.082,-2.73 ± 0.63,-2.22 ± 0.23,-2.03 ± 0.69,-1.97 ± 0.4,-1.12 ± 0.82,,
CCOc1ccc2c(n1)C(=O)C(C(=O)NCc1ccccc1)C=N2 (stereo not drawn),-1.14 ± 0.94,-1.5 ± 0.24,-0.931 ± 0.3,-1.34 ± 0.13,-0.884 ± 0.52,-0.792 ± 0.018,-1.83 ± 0.86,-0.163 ± 0.27,,
CN(CC(CC[N+]12CCC(C3CCCCC3)(CC1)CC2)c1ccc(Cl)c(Cl)c1)C(=O)c1cc(C(F)(F)F)cc(C(F)(F)F)c1 (stereo not drawn),-0.117 ± 0.43,-0.956 ± 0.68,-1.24 ± 0.014,-1.39 ± 0.29,-1.45 ± 0.36,1.28 ± 0.3,57.3 ± 4,84.4 ± 3.8,,
Cn1c(=O)cc(Oc2ccc(F)cc2F)c2cnc(NCC(C)(C)O)nc21,-1.61 ± 0.48,-1.64 ± 0.72,-0.855 ± 0.66,-0.86 ± 0.062,-1.12 ± 0.3,-1.19 ± 0.22,-0.929 ± 0.018,-1.1 ± 0.89,,
CN1C(=O)N(c2ccccc2Br)Cc2cnc(Nc3ccc4c(c3)OCC(CO)O4)nc21 (stereo not drawn),0.454 ± 1.5,-0.735 ± 1,-1.07 ± 0.81,-1.37 ± 0.18,-0.0336 ± 0.15,0.443 ± 0.9,8.29 ± 1.1,63.4 ± 0.97,,
CNC(=O)C1OC(n2cnc3c(NCc4cc(Cl)ccc4OCc4cc(C)no4)ncnc32)C(O)C1N (stereo not drawn),-1.47 ± 0.23,-1.47 ± 1.1,-1.92 ± 0.35,-1.97 ± 0.043,-1.57 ± 0.1,-1.54 ± 0.46,-0.977 ± 0.33,0.0796 ± 0.85,,
